Results taken from patent EP1117420B1, “PHARMACEUTICAL COMPOSITIONS BASED ON ALPHA-CYCLODEXTRIN FOR THE ORAL ADMINISTRATION OF LH-RH ANALOGUES” (LABORATOIRE THERAMEX S.A., priority 1998, dated 2000).

Legend:
LH-RH receptors [1] = biological target: T1, LH-RH receptors (Rattus norvegicus, UniProt P30969); assay: stimulation of testosterone secretion after oral gavage (plasma testosterone by radioimmunoassay); format: in vivo, Sprague-Dawley rats; design: from tissue; host or cells: pituitary of living adult male Sprague-Dawley rats (in vivo); settings: for total plasma testosterone (nmol/l) (m ± sem): 2 nmoles/rat by oral gavage, blood 2 hours after administration, male rats; for stimulation of testosterone secretion: 5 Ng/kg oral, 2 hours, Figure 3
T1 sequence (P30969 1-327): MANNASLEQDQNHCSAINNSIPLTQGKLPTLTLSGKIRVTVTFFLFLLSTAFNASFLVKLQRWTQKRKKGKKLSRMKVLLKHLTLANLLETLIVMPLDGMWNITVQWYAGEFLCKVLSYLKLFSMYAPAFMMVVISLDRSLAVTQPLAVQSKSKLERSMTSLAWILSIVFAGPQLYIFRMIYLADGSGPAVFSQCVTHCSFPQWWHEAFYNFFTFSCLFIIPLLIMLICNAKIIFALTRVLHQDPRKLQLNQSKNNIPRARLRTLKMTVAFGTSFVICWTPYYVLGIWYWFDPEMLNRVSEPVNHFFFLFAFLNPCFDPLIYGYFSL
Procedure: For screening purposes, blood samples were drawn 2 hours after oral administration of a common dose of 2 nmoles/rat of LH-RH peptide agonists in an aqueous solution containing 10 or 100 mM of α-CD (Tables 1 and 2; Figures 1, 4 and 6). […] Total plasma testosterone (Diagnostic System Laboratories) and LH (Amersham Pharmacia Biotech) determinations were performed by radioimmunoassay. In screening 2-hour experiments, each group comprised between 6 and 8 rats; each time point of the kinetic study was studied on four animals.
All α-CD derivatives were purchased from Cyclolab (Budapest, Hungary).
(§1) Then, the α-CD solution was added to fill the flask up to 10 ml to make a 2 nmol/ml solution of which 1ml was administered by oral gavage to each rat.
After overnight magnetic stirring at room temperature, each solution was given to rats by oral gavage in a 4 ml/kg volume to administer the same dose of 5 µg/kg of example 2 without or with increasing concentrations of α-CD.

LH-RH receptors [2] = biological target: T1, LH-RH receptors; assay: stimulation of LH secretion after oral gavage (plasma LH by radioimmunoassay); format: in vivo, Sprague-Dawley rats; design: from tissue; host or cells: pituitary of living adult male Sprague-Dawley rats (in vivo); settings: 2 nmoles/rat by oral gavage, blood 2 hours after administration, male rats
Procedure: […] […] Total plasma testosterone (Diagnostic System Laboratories) and LH (Amersham Pharmacia Biotech) determinations were performed by radioimmunoassay. In screening 2-hour experiments, each group comprised between 6 and 8 rats; each time point of the kinetic study was studied on four animals.
Two hours after administration, plasma LH levels were measured on eight rats per dose group (Figure 7).
as §1

LH-RH receptors [3] = biological target: T1, LH-RH receptors; assay: inhibition of ovulation by oral administration (ova in oviduct on day of expected estrus); format: in vivo, Wistar rats; design: from tissue; host or cells: pituitary of living adult female Wistar rats (in vivo)
Procedure: The peptides according to the general formula (I') exert an antagonist activity upon the LH-RH receptors in vivo, resulting in particular in the inhibition of ovulation.
The influence of α-, β- and γ-CD was tested on the activity of antide (an example of LH-RH peptide antagonist) when orally admininisted by gavage to normally cycling adult female Wistar rats between 1:30 and 3:00 p.m. on the day of proestrus, after at least two full regular estrous cycles as monitored by daily vaginal smears. The antiovulatory efficacy was checked the next morning, on the day of expected estrus, by looking for ova in the oviduct of treated females. The presence of at least one ovum attested that some degree of spontaneous ovulation did occur, and only the total absence of ovum was considered as effective LH-RH antagonist-induced inhibition of ovulation. Antide was solubilized in a vehicle consisting of 20% (vol/vol) propylene glycol in water already containing […], to which 10% (wt/vol) of either α-, β- or γ-CD was then added.
Each 5 mg powder vial of antide (from Bachem, Bubendorf, Switzerland) containing 4.2434 mg net peptide was dissolved in a mixture of 2.122 ml propylene glycol with 8.487 ml water containing 0.1% bovine albumin. To each 10.609 ml solution of antide (400 µg/ml), 1.061 g of either α-, β- or γ-CD was directly added to obtain a 10% concentration. Each female rat received the same volume of 1 ml of test formulation by gavage.
The same volume of administration was used for the doses of 200 and 600 µg/rat.

[4] = without α-CD (standard aqueous vehicle)
[5] = vehicle + α-CD (10%), antide 200 µg/rat p.o.
[6] = vehicle + α-CD (10%), antide 400 µg/rat p.o.
[7] = vehicle + α-CD (10%), antide 600 µg/rat p.o.
[8] = vehicle + β-CD (10%), antide 400 µg/rat p.o.
[9] = vehicle + γ-CD (10%), antide 400 µg/rat p.o.
[10] = vehicle only, antide 200 µg/rat p.o.
[11] = vehicle only, antide 400 µg/rat p.o.
[12] = vehicle only, antide 600 µg/rat p.o.

| Compound | total plasma testosterone (nmol/l) (m ± sem) (LH-RH receptors [1]; with α-CD (100 mM solution)) | total plasma testosterone (nmol/l) (m ± sem) (LH-RH receptors [1]; [4]) [nmol/L] | total plasma LH (ng/ml) (m ± sem) (LH-RH receptors [2]; with α-CD (100 mM solution)) [ng/mL] | total plasma LH (ng/ml) (m ± sem) (LH-RH receptors [2]; without α-CD) [ng/mL] | other results |
| --- | --- | --- | --- | --- | --- |
| [Npg^7]triptorelin [Example 5] | 52.1 ± 6.99 nmol/L | 15.8 ± 4.24 | 3.2 ± 0.56 | 1.4 ± 0.10 |  |
| CCNC(=O)[C@@H]1CCCN1C(=O)[C@H](CCCNC(=N)N)NC(=O)[C@H](CC(C)(C)C)NC(=O)[C@@H](C)NC(=O)[C@H](Cc1ccc(O)cc1)NC(=O)[C@H](CO)NC(=O)[C@H](Cc1c[nH]c2ccccc12)NC(=O)[C@H](Cc1c[nH]cn1)NC(=O)[C@@H]1CCC(=O)N1 [Example 2, [D-Ala^6, Npg7, desGly^10-ProNEt^9]LH-RH] | 72.8 ± 4.64 nmol/L | 23.0 ± 8.54 | 19.7 ± 3.70 | 1.6 ± 0.14 | stimulation of testosterone secretion (LH-RH receptors [1]; with 5% (51.4 mM) α-CD): did enhance; stimulation of testosterone secretion (LH-RH receptors [1]; with 10% (103 mM) as well as 14% (144 mM) α-CD): maximal level |
| CCNC(=O)[C@@H]1CCCN1C(=O)[C@H](CCCNC(=N)N)NC(=O)[C@H](CC(C)(C)C)NC(=O)[C@@H](Cc1ccccc1)NC(=O)[C@H](Cc1ccc(O)cc1)NC(=O)[C@H](CO)NC(=O)[C@H](Cc1c[nH]c2ccccc12)NC(=O)[C@H](Cc1c[nH]cn1)NC(=O)[C@@H]1CCC(=O)N1 [Example 4, [D-Phe^6, Npg7, desGly^10-ProNEt^9]LH-RH] | 67.9 ± 9.11 nmol/L | 30.1 ± 5.86 | 16.1 ± 5.22 | 1.4 ± 0.17 |  |
| [(S)spirolactam(Pro^6, Npg^7), desGly^10-ProNEt^9]LH-RH [Example 1] | 58.0 ± 8.75 nmol/L | 40.1 ± 6.78 | 7.1 ± 1.68 | 1.5 ± 0.19 |  |
| antide |  |  |  |  | influence of Beta- and γ-CD on the minimal activity of antide (LH-RH receptors [3]; combined with β- or γ-CD (10%), dose level of 400): no influence; animals showing inhibition of ovulation (LH-RH receptors [3]; out of 22 animals, vehicle only, threshold dose of 400): 3; n ovulations/ N treated rats (LH-RH receptors [3]; [5]): 6/8; percentage of inhibition (LH-RH receptors [3]; [5]): 25%; n ovulations/ N treated rats (LH-RH receptors [3]; [6]): 6/22; percentage of inhibition (LH-RH receptors [3]; [6]): 73%; n ovulations/ N treated rats (LH-RH receptors [3]; [7]): 2/8; percentage of inhibition (LH-RH receptors [3]; [7]): 75%; n ovulations/ N treated rats (LH-RH receptors [3]; [8]): 7/7; percentage of inhibition (LH-RH receptors [3]; [8]): 0%; n ovulations/ N treated rats (LH-RH receptors [3]; [9]): 7/7; percentage of inhibition (LH-RH receptors [3]; [9]): 0%; threshold effective dose by oral administration (LH-RH receptors [3]; vehicle only (no cyclodextrin), inhibition of ovulation): 400 µg/rat; n ovulations/ N treated rats (LH-RH receptors [3]; [10]): 8/8; percentage of inhibition (LH-RH receptors [3]; [10]): 0%; n ovulations/ N treated rats (LH-RH receptors [3]; [11]): 19/22; percentage of inhibition (LH-RH receptors [3]; [11]): 14%; n ovulations/ N treated rats (LH-RH receptors [3]; [12]): 5/8; percentage of inhibition (LH-RH receptors [3]; [12]): 44% |
| CCNC(=O)[C@@H]1CCCN1C(=O)[C@H](CCCNC(=N)N)NC(=O)[C@H](CC(C)C)NC(=O)[C@@H](C)NC(=O)[C@H](Cc1ccc(O)cc1)NC(=O)[C@H](CO)NC(=O)[C@H](Cc1c[nH]c2ccccc12)NC(=O)[C@H](Cc1c[nH]cn1)NC(=O)[C@@H]1CCC(=O)N1 [Example 6, [D-Ala^6, desGly^10-ProNet^9]LH-RH] | 61.8 ± 5.10 nmol/L | 28.3 ± 4.56 |  |  |  |
| deslorelin | marked potency | 9.7 ± 2.41 |  |  | total plasma testosterone (nmol/l) (m ± sem) (LH-RH receptors [1]; with α-CD (100 mM solution), listed as Deslorelin (α-CD)): 48.2 ± 7.29 nmol/L; total plasma testosterone (nmol/l) (m ± sem) (LH-RH receptors [1]; without α-CD (standard aqueous vehicle), listed as deslorelin): inactive |
| goserelin | 66.5 ± 6.19 nmol/L | 21.4 ± 5.99 |  |  |  |
| triptorelin | 61.9 ± 6.01 nmol/L | 25.8 ± 3.14 | 10.1 ± 2.54 | 1.4 ± 0.10 |  |
